Experimental data taken from ChEMBL document CHEMBL1159146, “Structure-activity studies of N-cyano-3-pyridinecarboxamidines and their amide and thioamide congeners” (1994).

Legend:
Assay type in all cases: functional
Cavia porcellus [1] = organism: Cavia porcellus; experiment: Compound was tested for negative inotropic activity in left atria of guinea pig
Rattus norvegicus = organism: Rattus norvegicus; experiment: Compound was tested for […] vasorelaxing activity in aorta of rat
Cavia porcellus [2] = organism: Cavia porcellus; experiment: Compound was tested for chronotropic activity in right atria of guinea pig

| Compound | pD2 (Cavia porcellus [1]) | pD2 (Rattus norvegicus) | pD2 (Cavia porcellus [2]) |
| --- | --- | --- | --- |
| N#CN/C(=N\CCc1ccccc1)c1cccnc1 | 4.6 | 6.4 | 3.85 |
| S=C(NCCc1ccccc1Cl)c1cccnc1 | <4.5 | 5.64 | 4.54 |
| O=C(NCCc1ccccc1)c1cccnc1 | <3.5 | 4.09 | <3.5 |
| N#CN/C(=N\CCc1ccccc1Cl)c1cccnc1 | 5.51 | 7.57 | 5.32 |
| S=C(NCCc1ccccc1)c1cccnc1 | 4.39 | 4.95 | 4.1 |
| N#CN/C(=N\CCO[N+](=O)[O-])c1cccnc1 | 4.84 | 6.95 | 4.42 |
| O=C(NCCc1ccccc1Cl)c1cccnc1 | 3.7 | 4.83 | <3.5 |
| O=C(NCCO[N+](=O)[O-])c1cccnc1 [NICORANDIL] | <3.5 | 5.62 | <3.5 |
